How the values were obtained:
Conditions in all cases: treatment: drug alone; 5 days
769-P [1] = experiment: GI50, drug alone; higher = less potent
Procedure: (§1)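 Primary HTS: 8 RCC cell lines treated with 8 doses (up to 10 uM) of each library drug alone for 5 days; viability read by CellTiter-Glo and normalised to DMSO. GI50 was fitted with XLfit (4-parameter), AUC is the area under the dose-response curve, and minimum viability is the lowest fraction of DMSO viability across doses.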

786-O [2] = experiment: GI50, drug alone; higher = less potent
Procedure: as §1

A498 [3] = experiment: GI50, drug alone; higher = less potent
Procedure: as §1

ACHN [4] = experiment: GI50, drug alone; higher = less potent
Procedure: as §1

CAKI-1 [5] = experiment: GI50, drug alone; higher = less potent
Procedure: as §1

SN12C [6] = experiment: GI50, drug alone; higher = less potent
Procedure: as §1

TK-10 [7] = experiment: GI50, drug alone; higher = less potent
Procedure: as §1

UO-31 [8] = experiment: GI50, drug alone; higher = less potent
Procedure: as §1

769-P [9] = experiment: minimum viability across doses, drug alone, relative to DMSO (fraction); higher = less growth inhibition
Procedure: as §1

786-O [10] = experiment: as above
Procedure: as §1

A498 [11] = experiment: as above
Procedure: as §1

ACHN [12] = experiment: as above
Procedure: as §1

CAKI-1 [13] = experiment: as above
Procedure: as §1

SN12C [14] = experiment: as above
Procedure: as §1

TK-10 [15] = experiment: as above
Procedure: as §1

UO-31 [16] = experiment: as above
Procedure: as §1

769-P [17] = experiment: AUC of dose-response viability curve, drug alone (arbitrary (AUC of normalised viability)); higher = less growth inhibition
Procedure: as §1

786-O [18] = experiment: as above
Procedure: as §1

A498 [19] = experiment: as above
Procedure: as §1

ACHN [20] = experiment: as above
Procedure: as §1

CAKI-1 [21] = experiment: as above
Procedure: as §1

SN12C [22] = experiment: as above
Procedure: as §1

TK-10 [23] = experiment: as above
Procedure: as §1

UO-31 [24] = experiment: as above
Procedure: as §1

GI50, drug alone (786-O [2]) | GI50, drug alone (ACHN [4]) | Structure (SMILES) | GI50, drug alone (769-P [1]) | GI50, drug alone (A498 [3]) | GI50, drug alone (CAKI-1 [5]) | GI50, drug alone (SN12C [6]) | GI50, drug alone (TK-10 [7]) | GI50, drug alone (UO-31 [8]) | minimum viability across doses (769-P [9]) | minimum viability across doses (786-O [10]) | minimum viability across doses (A498 [11]) | minimum viability across doses (ACHN [12]) | minimum viability across doses (CAKI-1 [13]) | minimum viability across doses (SN12C [14]) | minimum viability across doses (TK-10 [15]) | minimum viability across doses (UO-31 [16]) | AUC of dose-response viability curve (769-P [17]) | AUC of dose-response viability curve (786-O [18]) | AUC of dose-response viability curve (A498 [19]) | AUC of dose-response viability curve (ACHN [20]) | AUC of dose-response viability curve (CAKI-1 [21]) | AUC of dose-response viability curve (SN12C [22]) | AUC of dose-response viability curve (TK-10 [23]) | AUC of dose-response viability curve (UO-31 [24])
0.451 µM | 0.732 µM | Cc1cc(CN2CCN(c3c(Br)cnc4[nH]c(-c5ccc(N6CCN(C)CC6)cc5)nc34)CC2)no1 | 0.858 µM | 3.35 µM | 0.885 µM | 2.42 µM | 2.84 µM | 8.57 µM | 0.0185 | 0.00301 | 0.0157 | 0.00704 | 0.00778 | 0.0135 | 0.177 | 0.0211 | 2.44 | 2.01 | 3.57 | 2.36 | 2.6 | 2.74 | 2.61 | 4.13
3.87 µM | 0.381 µM | CC(C)(C)c1nc(-c2cccc(NS(=O)(=O)c3c(F)cccc3F)c2F)c(-c2ccnc(N)n2)s1 | > 10 µM | > 10 µM | 0.567 µM | > 10 µM | 5.14 µM | > 10 µM | 0.842 | 0.463 | 0.91 | 0.115 | 0.163 | 0.942 | 0.447 | 0.75 | 3.52 | 2.47 | 4.27 | 2.19 | 2.67 | 3.69 | 2.54 | 4.68
4.38 µM | 3.51 µM | O=C(NOCC1CC1)c1ccc(F)c(F)c1Nc1ccc(I)cc1Cl | 5.01 µM | > 10 µM | 4.19 µM | > 10 µM | 4.99 µM | > 10 µM | 0.233 | 0.41 | 0.593 | 0.263 | 0.23 | 0.467 | 0.362 | 0.779 | 2.96 | 2.98 | 3.44 | 2.78 | 3.04 | 2.86 | 2.68 | 4.14
1.24 µM | 3.93 µM | Nc1nc(NCCNc2ncc(-n3ccnc3)c(-c3ccc(Cl)cc3Cl)n2)ccc1[N+](=O)[O-] | 2.72 µM | > 10 µM | 7.77 µM | 9.82 µM | 1.92 µM | 1.65 µM | 0.0343 | 0.013 | 0.701 | 0.0311 | 0.211 | 0.455 | 0.0728 | 0.0119 | 2.89 | 2.36 | 4.54 | 3.06 | 3.69 | 3.5 | 2.43 | 3.59
> 10 µM | 0.472 µM | C#Cc1cccc(Nc2ncnc3cc(OCCOC)c(OCCO)cc23)c1 | 3.48 µM | > 10 µM | 2.84 µM | > 10 µM | 2.61 µM | > 10 µM | 0.396 | 0.531 | 0.994 | 0.097 | 0.159 | 0.645 | 0.402 | 1.05 | 2.71 | 2.98 | 4.38 | 2.13 | 2.93 | 3.24 | 2.39 | 4.22
